Assay results published in the supplement of paper PMC10307832.

Key:
Assay in all cases: relative viability (nuclei count vs DMSO), 5 days (fraction); higher = more cells survive
[1] = compound: C1/C(=C\C2=CC=CS2)/C(=O)/C(=C/C3=CC=CS3)/C1 + CC(=O)Nc1cccc(-n2c(=O)n(C3CC3)c(=O)c3c(Nc4ccc(I)cc4F)n(C)c(=O)c(C)c32)c1 [Trametinib] (partner 0.02 µM)
Method in brief: (§1)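 Lung cancer cell lines were pin-tool dosed in 1536-well plates on the day after seeding, with either a lone drug or a fixed anchor-drug dose plus five library-drug doses (not always all listed) in √10 steps. Nuclei were counted on 4× images after 5 days. Relative viability is the ratio of treated-well to vehicle-well nuclei counts, with each value a median of duplicate plates.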

[2] = compound: C1/C(=C\C2=CC=CS2)/C(=O)/C(=C/C3=CC=CS3)/C1 + C[C@@H](Oc1cc(-c2cnn(C3CCNCC3)c2)cnc1N)c1c(Cl)ccc(F)c1Cl [Crizotinib] (partner 1 µM)
Method in brief: as §1

[3] = compound: C1=CC(=CC=C1C2=CC(=C(S2)NC(=O)N)C(=O)N)F [TPCA-1] + CS(=O)(=O)N1CCN(Cc2cc3nc(-c4cccc5[nH]ncc45)nc(N4CCOCC4)c3s2)CC1 [Pictilisib] (partner 1 µM)
Method in brief: as §1

[4] = compound: C1=CC(=CC=C1C2=CC(=C(S2)NC(=O)N)C(=O)N)F [TPCA-1] + O=C(c1cc(Cc2n[nH]c(=O)c3ccccc23)ccc1F)N1CCN(C(=O)C2CC2)CC1 [Olaparib] (partner 8 µM)
Method in brief: as §1

Row | Cell Line | relative viability ([1]; first compound 0.2 µM) | relative viability ([1]; first compound 0.6325 µM) | relative viability ([1]; first compound 2 µM) | relative viability ([1]; first compound 6.325 µM) | relative viability ([1]; first compound 20 µM) | relative viability ([2]; first compound 0.2 µM) | relative viability ([2]; first compound 0.6325 µM) | relative viability ([2]; first compound 2 µM) | relative viability ([2]; first compound 6.325 µM) | relative viability ([2]; first compound 20 µM) | relative viability ([3]; first compound 0.04 µM) | relative viability ([3]; first compound 0.1265 µM) | relative viability ([3]; first compound 0.4 µM) | relative viability ([3]; first compound 1.265 µM) | relative viability ([3]; first compound 4 µM) | relative viability ([4]; first compound 0.04 µM) | relative viability ([4]; first compound 0.1265 µM) | relative viability ([4]; first compound 0.4 µM) | relative viability ([4]; first compound 1.265 µM) | relative viability ([4]; first compound 4 µM)
1 | NCI-H1666 | 0.855 | 0.86 | 0.791 | 0.861 | 0.77 | 1.23 | 1.19 | 1.09 | 0.643 | 0.974 | 0.419 | 0.35 | 0.412 | 0.561 | 0.404 | 0.767 | 0.673 | 0.71 | 0.757 | 0.768
2 | NCI-H1915 | 0.311 | 0.309 | 0.315 | 0.262 | 0.322 | 0.86 | 0.951 | 0.912 | 0.841 | 0.893 | 1.27 | 0.906 | 1.05 | 0.876 | 0.477 | 0.28 | 0.266 | 0.26 | 0.274 | 0.219
3 | NCI-H2009 | 0.284 | 0.308 | 0.317 |  | 0.272 | 1.11 | 1.09 | 1.02 | 0.971 | 1.06 | 0.974 | 0.741 | 0.896 | 0.272 | 0.318 | 0.697 | 0.733 | 0.626 | 0.753 | 0.817
4 | ChaGo-K-1 | 0.9 | 0.949 | 0.838 | 0.675 | 0.478 | 1.16 | 1.23 | 1.08 | 1.05 | 0.76 | 0.624 | 0.704 | 0.805 | 0.748 | 0.334 | 0.434 | 0.321 | 0.445 | 0.374 | 0.221
5 | COR-L 105 | 0.421 | 0.463 | 0.447 | 0.402 | 0.451 | 0.861 | 1.03 | 0.885 | 0.695 | 0.646 | 0.475 | 0.364 | 0.463 | 0.306 | 0.248 | 0.712 | 0.7 | 0.665 | 0.752 | 0.697
6 | NCI-H2170 | 0.918 | 0.92 | 0.863 | 0.78 | 0.867 | 1.29 | 1.29 | 1.26 | 1.03 | 1.07 | 0.373 | 0.27 | 0.32 | 0.32 | 0.209 | 0.668 | 0.568 | 0.65 | 0.508 | 0.439
7 | A549 |  |  |  |  |  | 0.825 | 0.813 | 0.823 | 0.767 | 0.738 | 0.676 | 0.517 |  | 0.378 | 0.242 | 0.342 | 0.313 | 0.507 | 0.201 | 0.0946
8 | SW 1573 | 0.637 | 0.573 | 0.674 | 0.491 | 0.596 | 0.778 | 0.693 | 0.889 | 0.749 | 0.895 | 0.54 | 0.419 | 0.506 | 0.505 | 0.495 | 0.539 | 0.414 | 0.481 | 0.476 | 0.48
9 | NCI-H1975 | 0.345 | 0.326 | 0.282 | 0.321 | 0.362 | 0.988 | 0.957 | 1.02 | 0.718 | 0.971 | 0.278 | 0.259 | 0.264 | 0.233 | 0.16 | 0.843 | 0.72 | 0.806 | 0.735 | 0.6
